From patent US20150126467A1, “USE OF ALGINATE OLIGOMERS TO ENHANCE THE EFFECTS OF ANTIFUNGAL AGENTS” (AlgiIPharma AS, priority 2011, published 2015)
Converted amounts (≈) assume the structure as drawn. Where two headings read alike, the source gives them in different places.

Tests used:
[1] = test system: C. lusitaniae 994/01(2) (candidosis); experiment: Standard MIC testing in RPMI medium (Example 3); assay type: cell-based, Candida lusitaniae; conditions: 48 h
Procedure: Following retrieval from −80° C. storage, fungal colonies were grown on blood agar with 5% sheep blood and were used to inoculate tryptone soya broth (TSB) for overnight growth. […] Fungal cultures at 0.5 McFarland standard were diluted ten-fold in RPMI medium and 5 μl added to the media containing wells of the microtiter plates. Plates were wrapped in parafilm and incubated at 34° C. for 48 hours. MIC values were determined as the lowest concentration at which there was no visible growth.

[2] = test system: Cryptococcus neoformans CCUG 23451; experiment: Robotic MIC assay, Cryptococcus neoformans (Example 6); assay type: cell-based; conditions: for MIC: Cryptococcus neoformans, read-out: Minimum Inhibitory Concentration (MIC)
Procedure, shortened: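 Two-fold antifungal dilutions tested against C. neoformans CCUG 23451 in medium (Mueller-Hinton, RPMI 2% glucose, Sabouraud or YM) containing OligoG CF-5/20 at 2, 6 or 10%, inoculated from characterised frozen stock. Static incubation at 34° C; OD600 read from 24 h to 96 h.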

Compound: OC(Cn1cncn1)(Cn1cncn1)c1ccc(F)cc1F [Fluconazole, fluconazole]
- Minimum Inhibitory Concentration (MIC) ([1]; 0% OligoG): 2 µg/mL
- Minimum Inhibitory Concentration (MIC) ([1]; 6% OligoG): 2 µg/mL
- Minimum Inhibitory Concentration (MIC) ([1]; 10% OligoG): 2 µg/mL
- MIC ([1]; Clavispora lusitaniae, 2% OligoG, read-out: Minimum Inhibitory Concentration (MIC)): 2 µg/mL (≈ 6.53 µM)
- MIC ([2]; CCUG23451, 72 h, RPMI 2% GLU, 0% OligoG, 72 hours): 2 µg/mL (≈ 6.53 µM)
- MIC ([2]; CCUG23451, 72 h, RPMI 2% GLU, 2% OligoG, 72 hours): 1 µg/mL (≈ 3.27 µM)
- MIC ([2]; CCUG23451, 72 h, RPMI 2% GLU, 6% OligoG, 72 hours): 0.5 µg/mL (≈ 1.63 µM)
- MIC ([2]; CCUG23451, 72 h, Sabouraud, 0% OligoG, 72 hours): 1 µg/mL (≈ 3.27 µM)
- MIC ([2]; CCUG23451, 72 h, Sabouraud, 2% OligoG, 72 hours): 0.5 µg/mL (≈ 1.63 µM)
- MIC ([2]; CCUG23451, 72 h, Sabouraud, 6% OligoG, 72 hours): 0.5 µg/mL (≈ 1.63 µM)
- MIC ([2]; CCUG23451, 72 h, YM, 0% OligoG, 72 hours): 1 µg/mL (≈ 3.27 µM)
- MIC ([2]; CCUG23451, 72 h, YM, 2% OligoG, 72 hours): 0.5 µg/mL (≈ 1.63 µM)
- MIC ([2]; CCUG23451, 96 h, MH, 0% OligoG, 96 hours): 2 µg/mL (≈ 6.53 µM)
- MIC ([2]; CCUG23451, 96 h, MH, 2% OligoG, 96 hours): 0.5 µg/mL (≈ 1.63 µM)
- MIC ([2]; CCUG23451, 96 h, RPMI 2% GLU, 0% OligoG, 96 hours): 2 µg/mL (≈ 6.53 µM)
- MIC ([2]; CCUG23451, 96 h, RPMI 2% GLU, 2% OligoG, 96 hours): 1 µg/mL (≈ 3.27 µM)
- MIC ([2]; CCUG23451, 96 h, RPMI 2% GLU, 6% OligoG, 96 hours): 1 µg/mL (≈ 3.27 µM)
- MIC ([2]; CCUG23451, 96 h, RPMI 2% GLU, 10% OligoG, 96 hours): 1 µg/mL (≈ 3.27 µM)
- MIC ([2]; CCUG23451, 96 h, Sabouraud, 0% OligoG, 96 hours): 1 µg/mL (≈ 3.27 µM)
- MIC ([2]; CCUG23451, 96 h, Sabouraud, 2% OligoG, 96 hours): 0.5 µg/mL (≈ 1.63 µM)
- MIC ([2]; CCUG23451, 96 h, Sabouraud, 6% OligoG, 96 hours): 0.5 µg/mL (≈ 1.63 µM)
- MIC ([2]; CCUG23451, 96 h, YM, 0% OligoG, 96 hours): 1 µg/mL (≈ 3.27 µM)
- MIC ([2]; CCUG23451, 96 h, YM, 2% OligoG, 96 hours): 1 µg/mL (≈ 3.27 µM)
- effect on MIC when OligoG is added to the medium ([2]; media: RPMI with 2% glucose, MH, Sabouraud, YM): reduction in MIC in all media tested
